This note sets out measurements from patent US20240417408A1, “SMALL MOLECULE INHIBITORS OF KRAS G12C MUTANT” (MERCK SHARP & DOHME CORP., priority 2021, published 2024).

pIC50: −log10 of the molar value.

In assay [1] the target is T1, Recombinant KRAS G12C mutant protein (amino acids 1-169, SEQ ID NO: 1) (Homo sapiens, UniProt P01116, G12C).
T1 construct: His6 (N); TEV protease site (ENLYFQG; named from own knowledge) (N); made in house; host or cells: E. coli
Description: Test Example 1: inhibitory activity on KRAS G12C nucleotide (GDP-GTP) exchange reaction in vitro. The format is biochemical. Particulars: BODIPY FL GDP-bound KRAS G12C incubated with compound at 25° C. for 1 hour, then SOS1 and GMPPNP, read-out: GNE IC50. The procedure:
Test Example 1: Evaluation of inhibitory activity of compounds on KRAS G12C nucleotide (GDP-GTP) exchange reaction in vitro
Recombinant KRAS G12C mutant protein (amino acids 1-169, SEQ ID NO: 1) and cleaved recombinant SOS1 (amino acids 564-1049, SEQ ID NO:2) proteins were expressed in E. coli and purified by affinity chromatography.
To prepare BODIPY FL GDP-bound KRAS G12C protein, 50 μM KRAS G12C protein was incubated with 0.5 mM BODIPY FL GDP in a loading buffer (20 mM Tris-HCl (pH 7.5), 50 mM NaCl, 1 mM DTT and 2.5 mM EDTA) for 1 hour on ice. After the incubation, MgCl2 was added to a final concentration of 10 mM, followed by incubation at room temperature for 30 minutes. The mixture was allowed to pass through a NAP-5 column to remove free nucleotides and purified BODIPY FL GDP-bound KRAS G12C protein was used for compound evaluation.
For the measurement of the inhibitory activity of compounds on GDP-GTP exchange rate of recombinant KRAS G12C, BODIPY FL GDP-bound KRAS G12C protein was incubated with various concentrations of compound in a reaction buffer (20 mM Tris-HCl (pH 7.5), 100 mM NaCl, 1 mM MgCl2, 2 mM DTT, 0.1% Tween 20) at 25° C. for 1 hour. After the incubation, recombinant SOS1 and Guanosine-5′-[(β,γ)-imido]triphosphate, Tetralithium salt (GMPPNP) (Jena Bioscience GmbH) were added and incubated at room temperature for 30 minutes to proceed SOS1-dependent GDP-GTP exchange reaction on KRAS G12C. Replacement of BODIPY FL GDP by GMPPNP was measured by calculating the ratio of fluorescence intensities of BODIPY FL before and after the exchange reaction. Inhibition % was calculated by setting the fluorescence ratio from the reaction without test compound (DMSO control) and the fluorescence ratio from the reaction without SOS1 and GMPPNP as 0% and 100% inhibition, respectively. IC50 values were calculated from dose titration curve using curve fitting by XLfit software (IDBS).

Assay [2] has as its target T2, interaction between KRAS G12C and cRAF-RBD (Homo sapiens, UniProt P01116, G12C).
T2 construct: TEV protease site (ENLYFQG); made in house; host or cells: E. coli
Description: Test Example 2: inhibitory activity on interaction between KRAS G12C and cRAF (Alpha technology). The format is binding. Particulars: GMPPNP-bound KRAS G12C incubated with compound at 25° C. for 1 hour, then cRAF-RBD. The procedure: Test Example 2: Evaluation of Inhibitory Activity of Compounds on Interaction Between KRAS G12C and cRAF (In Vitro)
Interaction between recombinant KRAS G12C mutant protein (SEQ ID NO: 1) and cRAF RAS-binding domain (cRAF-RBD, amino acids 50-132, Jena Biosciences GmbH) was measured using Alpha technology (PerkinElmer Inc.).
Recombinant KRAS G12C protein with an N-terminal His-tag was expressed in E. coli and purified by affinity chromatography. To prepare GTP-bound form and GDP-bound form of KRAS G12C protein, 50 μM KRAS G12C protein was incubated with 1 mM GMPPNP (Jena Bioscience GmbH) and 1 mM GDP, respectively, in a loading buffer (20 mM Tris-HCl (pH 7.5), 50 mM NaCl, 1 mM DTT and 2.5 mM EDTA) for 1 hour on ice. After the incubation, MgCl2 was added to a final concentration of 10 mM, followed by incubation at room temperature for 30 minutes. The mixture was allowed to pass through a NAP-5 column to remove free nucleotides and purified, and the resultant nucleotide-bound KRAS G12C protein was used for compound evaluation.
For the measurement of the inhibitory activity of compounds on interaction between KRAS G12C and cRAF-RBD, GMPPNP-bound KRAS G12C protein was incubated with various concentrations of compound in a reaction buffer (20 mM Tris-HCl (pH 7.5), 100 mM NaCl, 1 mM MgCl2, 1 mM TCEP, 0.1% Tween 20) at 25° C. for 1 hour. After the incubation, recombinant cRAF-RBD and Alpha detection reagents were added and incubated at room temperature for 1.5 hours for binding. Interaction of KRAS G12C and cRAF-RBD was monitored by measuring Alpha signal. Inhibition % was calculated using the signal from the reaction without test compound (DMSO control) as 0% inhibition and the signal from the reaction using GDP-bound KRAS G12C in place of GMPPNP-bound KRAS G12C as 100% inhibition. IC50 values were calculated from dose titration curve using curve fitting by XLfit software (IDBS).

The subject of another assay is MIA PaCa-2 cells. Description: Test Example 3: growth inhibition activity on KRAS-G12C mutant cell line (MIA PaCa-2). The format is cell-based. Conditions: Homo sapiens, 72 h, MIA PaCa-2, 3-day culture, CellTiter-Glo 3D, read-out: CTX MiaPaCa IC50. The procedure: Test Example 3: Assay of Growth Inhibition Activity on KRAS-G12C Mutant Cell Line (MIA PaCa-2) (In Vitro)
MIA PaCa-2 cells (provided by Sumitomo Dainippon Pharma Co., Ltd.), which are a KRAS-G12C mutant human pancreas cancer cell line, were suspended in a 10% fetal bovine serum-containing RPMI1640 medium (manufactured by Fujifilm Wako Pure Chemical Corporation.). The cell suspension was seeded into each well of a 384-well U bottom microplate and cultured in an incubator containing 5% CO2 gas at 37° C. for 1 day. The compounds obtained in the Examples section were used as test compounds and were dissolved in DMSO, respectively, and each test compound was diluted with DMSO to give a concentration 500 times the final concentration. The resultant solution of the test compound in DMSO was diluted with the medium used for suspending cells and added to each well of the cell-culture plate to give a DMSO final concentration of 0.2%, followed by culture in an incubator containing 5% CO2 gas at 37° C. for another 3 days. The cell count after 3-day culture in the presence of the test compound was measured using CellTiter-Glo 3D Reagent (manufactured by Promega Corporation). To all cells were added with CellTiter-Glo 3D Reagent and mixed for 10 minutes. 30 minutes after mixing, luminescence was measured by a plate reader. The growth inhibition rate was calculated from the following equation, and the concentration of the test compound at which 50% inhibition was achieved (IC50 (nM)) was determined.
[formula] • T: the emission intensity in a well into which a test compound was added. • C: the emission intensity in a well into which a test compound was not added.

T2 sequence (P01116 with tags, fused parts or gaps isoform P01116-2 G12C): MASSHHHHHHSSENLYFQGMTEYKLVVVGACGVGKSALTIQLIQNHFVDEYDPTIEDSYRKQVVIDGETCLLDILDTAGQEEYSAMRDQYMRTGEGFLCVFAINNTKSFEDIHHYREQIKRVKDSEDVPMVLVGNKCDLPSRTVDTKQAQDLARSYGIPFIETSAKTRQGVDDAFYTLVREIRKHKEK
T1 sequence (P01116 with tags, fused parts or gaps isoform P01116-2 G12C): as above

As to `COC1CCN(C/C=C/C(=O)N2CCN(c3nc(OC[C@@H]4CCCN4C)nc4c3CO[C@H](c3cc(O)cc5cccc(Br)c35)C4)C[C@@H]2CC#N)CC1` [Example 10, 2-((S)-4-((S)-7-(8-bromo-3-hydroxynaphthalen-1-yl)-2-(((S)-1-methylpyrrolidin-2-yl)methoxy)-7,8-dihydro-5H-pyrano[4,3-d]pyrimidin-4-yl)-1-((E)-4-(4-methoxy-piperidin-1-yl)but-2-enoyl)-piperazin-2-yl)acetonitrile], the pIC50 in assay [1] was 9.14; in assay [2] it was 6.97; with MIA PaCa-2 cells, 7.99.
The corresponding values for `CO[C@H]1CC[C@H](NC/C=C/C(=O)N2CCN(c3nc(OC[C@@H]4CCCN4C)nc4c3CO[C@H](c3cc(O)cc5cccc(Br)c35)C4)C[C@@H]2CC#N)CC1` [Example 11, 2-((S)-4-((S)-7-(8-bromo-3-hydroxynaphthalen-1-yl)-2-(((S)-1-methylpyrrolidin-2-yl)methoxy)-7,8-dihydro-5H-pyrano[4,3-d]pyrimidin-4-yl)-1-((E)-4-(((1r,4S)-4-methoxycyclohexyl)amino)-but-2-enoyl)piperazin-2-yl)-acetonitrile] are 9.09, 6.74 and 7.66.
The matching figures for `C#Cc1cccc2cccc([C@@H]3Cc4nc(OCC5(CN6CCOCC6)CC5)nc(N5CCN(C(=O)/C=C/CN6CCC(OC)CC6)[C@@H](CC#N)C5)c4CO3)c12` [Example 12, 2-((S)-4-((S)-7-(8-ethynyl-naphthalen-1-yl)-2-((1-(morpholinomethyl)cyclo-propyl)methoxy)-7,8-dihydro-5H-pyrano[4,3-d]pyrimidin-4-yl)-1-((E)-4-(4-methoxypiperidin-1-yl)-but-2-enoyl)piperazin-2-yl)-acetonitrile]: 8.17, 6.51 and 6.77.
For the compound `C#Cc1cccc2cc(O)cc([C@@H]3Cc4nc(OCC5(CN(C)C)CC5)nc(N5CCN(C(=O)/C=C/CN6CCC(OC)CC6)[C@@H](CC#N)C5)c4CO3)c12` [Example 13, 2-((S)-4-((S)-2-((1-((dimeth-ylamino)methyl)cycloprop-yl)methoxy)-7-(8-ethynyl-3-hydroxynaphthalen-1-yl)-7,8-dihydro-5H-pyrano[4,3-d]pyrimidin-4-yl)-1-((E)-4-(4-methoxypiperidin-1-yl)-but-2-enoyl)piperazin-2-yl)-acetonitrile], the results for the pIC50 (in assay [1]; in assay [2]; in the assay on MIA PaCa-2 cells) were 9.04, 7.29 and 8.21, respectively.
For `C#Cc1cccc2cc(O)cc([C@@H]3Cc4nc(OC[C@@H]5CCCN5C)nc(N5C[C@H](CC#N)N(C(=O)/C=C/CN6CCC(OC)CC6)C[C@H]5C)c4CO3)c12` [Example 14, 2-((2S,5R)-4-((S)-7-(8-ethynyl-3-hydroxynaph-thalen-1-yl)-2-(((S)-1-meth-ylpyrrolidin-2-yl)methoxy)-7,8-dihydro-5H-pyrano[4,3-d]pyrimidin-4-yl)-1-((E)-4-(4-methoxypiperidin-1-yl)-but-2-enoyl)-5-methylpiper-azin-2-yl)acetonitrile], the pIC50 was 9.09 in assay [1], 6.28 in assay [2] and 8.10 in the assay on MIA PaCa-2 cells.
`C#Cc1cccc2cc(O)cc([C@@H]3Cc4nc(OC[C@@H]5CCCN5C)nc(N5C[C@H](CC#N)N(C(=O)/C=C/CN6CCC(OC)CC6)C[C@@H]5C)c4CO3)c12` [Example 15, 2-((2S,5S)-4-((S)-7-(8-ethynyl-3-hydroxynaph-thalen-1-yl)-2-(((S)-1-meth-ylpyrrolidin-2-yl)methoxy)-7,8-dihydro-5H-pyrano[4,3-d]pyrimidin-4-yl)-1-((E)-4-(4-methoxypiperidin-1-yl)-but-2-enoyl)-5-methyl-piperazin-2-yl)acetonitrile]: the figures for the pIC50 (in assay [1]; in assay [2]; in the assay on MIA PaCa-2 cells) were 6.99, under 5.18 and 5.72, respectively.
The matching figures for `C#Cc1cccc2cc(O)cc(C3Cc4nc(OC5CN(S(C)(=O)=O)C5)nc(N5CCN(C(=O)/C=C/CN6CCC(OC)CC6)[C@@H](CC#N)C5)c4CO3)c12` (stereo partly drawn) [Example 16, 2-((2S)-4-(7-(8-ethynyl-3-hydroxynaphthalen-1-yl)-2-((1-(methylsulfonyl)azeti-din-3-yl)oxy)-7,8-dihydro-5H-pyrano[4,3-d]pyrimidin-4-yl)-1-((E)-4-(4-methoxy-piperidin-1-yl)but-2-enoyl)-piperazin-2-yl)acetonitrile]: 6.47, under 5.18 and under 5.00.
Turning to `C#Cc1cccc2cc(O)cc([C@@H]3Cc4nc(OCC5(COC)CC5)nc(N5CCN(C(=O)/C=C/CN6CCC(OC)CC6)[C@@H](CC#N)C5)c4CO3)c12` [Example 17, 2-((S)-4-((S)-7-(8-ethynyl-3-hydroxynaphthalen-1-yl)-2-((1-(methoxymethyl)-cyclopropyl)methoxy)-7,8-dihydro-5H-pyrano[4,3-d]-pyrimidin-4-yl)-1-((E)-4-(4-methoxypiperidin-1-yl)but-2-enoyl)piperazin-2-yl)-acetonitrile], the pIC50 in assay [1] was 6.59; in assay [2] it was under 5.18; in the assay with MIA PaCa-2 cells, 6.27.
The corresponding values for `C#Cc1cccc2cc(O)cc([C@@H]3Cc4nc(OCC5(C(=O)N(C)C)CC5)nc(N5CCN(C(=O)/C=C/CN6CCC(OC)CC6)[C@@H](CC#N)C5)c4CO3)c12` [Example 18, 1-((((S)-4-((S)-3-(cyano-methyl)-4-((E)-4-(4-meth-oxypiperidin-1-yl)but-2-enoyl)piperazin-1-yl)-7-(8-ethynyl-3-hydroxynaph-thalen-1-yl)-7,8-dihydro-5H-pyrano[4,3-d]pyrimidin-2-yl)oxy)methyl)-N,N-dimethylcyclopropane-1-carboxamide] are 7.23, under 5.18 and 5.35.
